Test results published in patent publication US4916145A, “Substituted n-[(pyridyl)alkyl]aryl-carboxamide” (Hoffmann-La Roche Inc., priority 1987, dated 1990).

What was measured:
[1] = target: T1, Thromboxane Synthase (TXA2 Syn.) (Homo sapiens, UniProt P24557); assay: TXA2 Synthesis Inhibition (thromboxane synthase, microsomal fractions from human platelets); format: biochemical; conditions: human platelet microsomes, 10 μM 14C-PGH2, 22°, 2 minutes
T1 construct: microsomal fractions from human platelets as enzyme source; from tissue; host or cells: microsomal fractions from human platelets
T1 sequence (P24557 1-533): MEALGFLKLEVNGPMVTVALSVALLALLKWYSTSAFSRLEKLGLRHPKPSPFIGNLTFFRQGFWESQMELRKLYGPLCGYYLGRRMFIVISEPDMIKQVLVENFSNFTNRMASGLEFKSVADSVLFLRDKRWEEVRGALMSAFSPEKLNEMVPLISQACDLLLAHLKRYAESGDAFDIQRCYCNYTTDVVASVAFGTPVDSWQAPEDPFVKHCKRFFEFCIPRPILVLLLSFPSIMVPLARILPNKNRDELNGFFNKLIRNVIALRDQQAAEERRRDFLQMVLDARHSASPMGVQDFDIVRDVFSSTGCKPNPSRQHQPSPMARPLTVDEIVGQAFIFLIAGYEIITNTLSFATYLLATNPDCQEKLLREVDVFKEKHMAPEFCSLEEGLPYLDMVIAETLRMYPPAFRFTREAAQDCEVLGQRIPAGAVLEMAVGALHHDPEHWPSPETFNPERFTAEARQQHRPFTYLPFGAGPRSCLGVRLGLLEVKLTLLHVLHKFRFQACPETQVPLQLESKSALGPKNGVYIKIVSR
Protocol: Thromboxane synthase inhibitory activity is measured by following the conversion of ^14 C-[…] using microsomal fractions from human platelets as enzyme source. In the aqueous incubation medium. The TXA2 decomposes rapidly into TXB2 . The amount of TXA2 syn. is adjusted so that under the conditions of the assay approximately 80-90% of the substrate. PGH2, is converted to product in control tubes. To prepare ^14 C-PGH2, ^14 C-AA(50-60mCi/mmole; Rose Chem.) is incubated with sheep seminal vesicular gland microsomes for 1.5 min. at 37° and then the ^14 C-PGH2 is extracted with diethylether, purified on columns of Sephadex LH-20 or silicic acid, and stored in acetone at -70° C. Incubations are done as follows. Sufficient ^14 C-PGH2 to yield a final substrate concentration of 10 μM ( 30,000 cpm) is added to the incubation tubes and then the acetone is removed under nitrogen. The tubes are placed in an ice bath and then 215 μl of ice cold phosphate buffered saline, 10 μof ethanol (control) or of test drug in ethanol, and 25 μl of the microsomal suspension are added with mixing in that order as rapidly as possible. The tubes are incubated at 22° for 2 minutes, the reaction is stopped and then the radioactive products and the unconverted PGH2 are extracted and analyzed by thin layer chromatography. The amount of ^14 C-PGH2 converted to products is analyzed by thin layer chromatography. The amount of ^14 C-PGH2 converted to products was used as a measure of TXA synthase activity. Inhibitors were tested initially at a concentration of 100 μM.

[2] = target: T2, PAF binding, dog platelets (Canis lupus familiaris, UniProt A0A8I3NSH0); assay: PAF Binding Assay (3H-PAF binding to washed dog platelets); conditions: 10 minutes at room temperature
T2 sequence (A0A8I3NSH0 1-343): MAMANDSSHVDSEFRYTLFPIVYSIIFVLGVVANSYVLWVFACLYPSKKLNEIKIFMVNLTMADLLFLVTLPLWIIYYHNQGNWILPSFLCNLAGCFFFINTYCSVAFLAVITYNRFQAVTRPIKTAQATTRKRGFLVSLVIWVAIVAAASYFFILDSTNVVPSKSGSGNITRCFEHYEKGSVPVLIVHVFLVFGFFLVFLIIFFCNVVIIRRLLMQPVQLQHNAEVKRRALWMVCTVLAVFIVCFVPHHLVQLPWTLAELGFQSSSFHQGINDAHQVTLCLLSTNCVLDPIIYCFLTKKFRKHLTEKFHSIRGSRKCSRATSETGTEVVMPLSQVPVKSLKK
Protocol: The binding assay was performed in 400 μl polyethylene microcentrifuge tubes (Beckman) containing 50 μl of an oil mixture of 2 parts Siliconol AR200 (Serva): 1 part Silicone Fluid (Arthur H. Thomas). Buffer, standards, or analogs 150 μl total volume) were added to the tubes. Radiolabelled ^3 H-PAF (50 μl) was then added to the tubes. The reaction was started by the addition of 50 μl of dog platelets (2×10^7 platelets). The tubes were capped, inverted several times to mix, and incubated for 10 minutes at room temperature. The platelets were separated from the incubation mixture by centrifuging 1 minute in a Beckman Microfuge B centrifuge. The tip of the microfuge tube was cut off, and the platelets were washed out of the tip with 200 μl of 50% methanol (Burdick and Jackson). Aquasol (NEN, 10 ml) was added and the radioactivity in the samples was determined using an LS 8100 Beckman liquid scintillation counter linked to a Techtran tape recorder. Data was processed through an in-house computer system. Alternatively, radioactivity was determined using a Searle Mark III liquid scintillation counter linked to a Iso-Data microprocessor.
Blood was collected from anesthesized or unanesthesized dogs into 5ml plastic centrifuge tubes containing 3.8% sodium citrate as the anticoagulant (1 volume of citrate/9 volumes of blood). The red cells were removed by centrifugation for 15 minutes at 600 rpm (100-125 g) at room temperature. An aliquot of the supernatant platelet rich Plasma (PRP) was saved for cell counting and the remainder was acidified to pH 6.5 with 0.15M citric acid. The platelet pellet was obtained after a 10 minute centrifugation at 2000 rpm (1000 g) at room temperature. Washed platelets were prepared by resuspending the platelet pellet once with PBS containing 1 mM EDTA, centrifuging as noted, and then resuspending the platelets in 0.1% BSA-PBS. An aliquot of the washed platelets was counted, platelets used for binding assays were diluted to 2×10^7 platelets/assay tube (4×10^8 platelets/ml).

[3] = system: PAF-Induced Platelet Count Decrease; assay: PAF-Induced Platelet Count Decrease; format: in vivo, guinea pig; conditions: for inhibition in vivo at 3 mg/kg: Cavia porcellus, Platelet, 0.25 h, iv, 15 minutes pretreatment time, read-out: PAF-Induced Platelet Count Decrease % Inhibition, i.v.
Protocol: Male Hartley guinea pigs weighing between 500 and 900 grams were fed standard guinea pig chow and tap water ad libitum. PAF was solubilized in ethanol and stored as a 2 mM stock solution at -70° C. The stock solution of PAF was diluted to […] in Tris buffer pH 7.4 and 0.1% BSA for all experiments.
Guinea pigs were anesthetized with urethane (1.6 g/kg, i.p.). A catheter (PE50) was introduced into the right carotid artery for withdrawing blood. A second catheter PE10) was introduced into the jugular vein for injecting drugs and for administering the PAF challenge (75 ng/kg, i.v.). A control blood sample was obtained and platelets were counted in a whole blood platelet analyzer. PAF was then given and blood samples were taken 15, 30, and 60 seconds after the challenge for platelet counts. Fifteen minutes later, selected concentrations of the test compound were solubilized in DMSO and injected intravenously into a group of 4-6 animals. Only one concentration of the test drug was used in each animal group. Fifteen minutes after drug injection, blood samples were taken before and 15, 30, and 60 sec after the PAF challenge, and analyzed for platelet number.
Animals were anesthetized with sodium pentobarbital (35 mg/kg. i.p.) and the carotid artery and jugular vein were cannulated as described above. The cannulae were exteriorized at the base of the neck and the animals were allowed to recover. Conscious, unrestrained guinea pigs which were allowed to recover from surgery for at least 18 hours were used in the experiments. The animals were challenged two times with PAF (120 ng/kg, i.v.); the first to establish a consistent response to PAF and the second to serve as a control from the PAF challenge. Blood samples were taken before and 15, 30, and 45 seconds after PAF challenge and platelets were counted. Thirty minutes after the control PAF challenge, the animals were orally dosed with either gum acacia or the test compound. Animals were then challenged with PAF at 1, 3, 5, and 24 hours after the administration of the drug.
The % change, i.e., the difference in platelet number before and after PAF challenge was calculated by: [formula] The % activity of drug was then determined by
Statistical significance (p≤0.05) of the difference between the mean PAF control and mean drug treated activity was determined with the pared Students's t-test.

[4] = system: PAF-Induced Bronchoconstriction; assay: PAF-Induced Bronchoconstriction Assay; format: in vivo, guinea pig; conditions: Cavia porcellus; for inhibition in vivo at 1 mg/kg: 1 min, 1 mg/kg iv, 1 minute pretreatment; for inhibition in vivo at 50 mg/kg: po, 2 hours pretreatment
Protocol: The in vivo ability of compounds to inhibit PAF-induced bronchoconstriction in guinea pigs was assessed by the intravenous and oral routes of administration. The intravenous technique utilized male guinea pigs (Hartley strain, Charles River) weighing 400-600 g. Animals were anesthetized with urethane (2 g/kg) intraperitoneally and a polyethylene cannula was inserted into the jugular vein for intravenous drug administration. Tracheal pressure ([…]) was recorded from a Statham pressure transducer (P 32 AA). Propranolol was administered 5 minutes prior to challenge with PAF. Two minutes later spontaneous breathing was arrested with succinylcholine chloride (1.2 mg/kg) administered intravenously, and the animals were ventilated with a Harvard (Model 680) small animal respirator set at 40 breaths/min and 4.0 cc stroke volume. Control vehicle or test drug was administered through the cannula into the jugular vein 1 minute before the animals were challenged with a maximum constrictory dose of PAF (1.0 μg/kg) given intravenously. The change in tracheal pressure was averaged for four control and four drug-treated animals and percent inhibition was calculated.
For determination of oral activity, animals were dosed with test compound or vehicle two hours prior to challenge with PAF (1.0 μg/kg, i.v.).
The change in tracheal pressure is determined by subtracting the steady state baseline achieved after administration of succinylcholine from the peak bronchoconstriction seen after challenge with PAF. The mean change in tracheal pressure is calculated for each test compound and compared to the mean change in tracheal pressure for the control animals to give the percent inhibition of bronchoconstriction. The standard error is calculated as the standard error of the mean.

[5] = system: PAF-Induced Platelet Count Decrease; assay: PAF-Induced Platelet Count Decrease; format: in vivo, guinea pig; conditions: 30 mg/kg, 2 hours, pretreatment

Structure (SMILES) | IC50 [1] [nM] | IC50 [2] [nM] | inhibition in vivo at 3 mg/kg [3] [%] | inhibition in vivo at 1 mg/kg [4] [%] | inhibition in vivo at 50 mg/kg [4] [%] | PAF-Induced Platelet Count Decrease % Inhibition, po ([3]; 100 mg/kg, po, 3 hours, pretreatment) [%] | PAF-Induced Platelet Count Decrease % Inhibition, po [5] [%]
Cc1ccc(-c2ccc(C(=O)NC(C)CCCc3cccnc3)cc2)cc1C (racemic) [(rac.)-3',4'-Dimethyl-N-[1-methyl-4-(3-pyridinyl)butyl][1,1'-biphenyl]-4-carboxamide] | 100 to 1000 | 200 | 12 | – | – | – | –
COc1cccc(-c2ccc(C(=O)N[C@H](C)CCCc3cccnc3)cc2)c1 [(R)-3'-Methoxy-N-[1-methyl-4-(3-pyridinyl)butyl]-[1,1'-biphenyl]-4-carboxamide] | – | 20 | 17 | – | – | – | –
COc1cccc(-c2ccc(C(=O)NCCCCc3cccnc3)cc2)c1 [3'-Methoxy-N-[4-(3-pyridinyl)butyl][1,1'-biphenyl]-4-carboxamide] | 25 | 280 | – | 70 ± 10 | 55 ± 17 | – | –
Cc1ccc(-c2ccc(C(=O)NCCCCc3cccnc3)cc2)cc1C [3',4'-Dimethyl-N-[4-(3-pyridinyl)butyl][1,1-biphenyl]-4-carboxamide] | 125 | 700 | – | – | – | – | –
O=C(NCCCCc1cccnc1)c1ccc(-c2cccc(O)c2)cc1 [3'-Hydroxy-N-[4-(3-pyridinyl)-butyl][1,1'-biphenyl]-4-carboxamide] | < 100 | 300 | – | – | – | – | –
COc1ccc(-c2cc(C)c(C(=O)NCCCCc3cccnc3)c(C)c2)cc1OC [3',4'Dimethoxy-3,5-dimethyl-N-[4-(3-pyridinyl)butyl][1,1'-biphenyl]-4-carboxamide] | – | 60 | 14 | 17 ± 11 | – | – | –
Cc1ccc(-c2ccc(C(=O)NCCCCCCc3cccnc3)cc2)cc1C [3',4'-Dimethyl-N-[6-(3-pyridinyl)hexyl][1,1'-biphenyl]-4-carboxamide] | 600 | 450 | 27 | – | – | – | –
COc1ccc(-c2ccc(C(=S)NCCCCc3cccnc3)cc2)cc1OC [3',4'-Dimethoxy-N-[4-(3-pyridinyl)butyl][1,1'-biphenyl]-4-carbothioamide] | 225 | – | 15 | – | – | 53 | –
Cc1ccc(-c2ccc(C(=S)NC(C)CCCc3cccnc3)cc2)cc1C (racemic) [rac.-3',4'-Dimethyl-N-[1-methyl-4-(3-pyridinyl)butyl][1,1'-biphenyl]-4-carbothioamide] | – | 110 | 28 | 4 ± 4 | – | – | –
O=C(NCCCCc1cccnc1)c1ccc(-c2ccccc2)cc1 [N-[4-(3-Pyridinyl)butyl]-[1,1'-biphenyl]-4-carboxamide] | 100 | – | – | 42 ± 7 | – | – | –
COc1cccc(-c2ccc(C(=S)NC(C)CCCc3cccnc3)cc2)c1 (racemic) [(rac.)-3'-Methoxy-N-(1-methyl-4-(3-pyridinyl)butyl][1,1'-biphenyl]-4-carbothioamide] | 100 to 1000 | 120 | 6 | 16 ± 14 | – | – | –
Cc1ccc(-c2ccc(-c3nnnn3CCCCc3cccnc3)cc2)cc1C [3-[4-[5-(3',4'-Dimethyl-[1,1'-biphenyl]-4-yl)-1H-tetrazol-1-yl]butyl]pyridine] | > 1000 | 800 | – | 57 ± 4 | – | – | –
Cc1ccc(-c2ccc(-c3nnnn3CCCCCCc3cccnc3)cc2)cc1C [3-[6-[5-(3',4'-Dimethyl-[1,1'-biphenyl]-4-yl)-1H-tetrazol-1-yl]hexyl]pyridine] | 100 to 1000 | 200 | 0 | 18 ± 13 | – | – | –
COc1ccc(-c2ccc(C(=S)NC(C)CCCc3cccnc3)cc2)cc1OC (racemic) [rac.-3',4'-Dimethoxy-N-[1-methyl-4-(3-pyridinyl)butyl][1,1'-biphenyl]-4-carbothioamide] | 100 to 1000 | 60 | 24 | 86 ± 7 | 37 ± 9 | – | 48
